Measured values published in patent US20210315175A1, “METHODS OF MAKING FEMINIZED CANNABIS SATIVA SEED AND COMPOSITIONS THEREOF” (priority 2019, published 2021).

Experiments:
[1] = test system: genetically female Cannabis ssp plants; experiment: AIB root drench: induction of male flowers and phytotoxicity (Example 21); type: in vivo
Protocol: To determine if the ethylene inhibitor 2-Aminoisobutyric acid (AIB) can induce male flowers on genetically female Cannabis ssp plants, three different rates of 2-Aminoisobutyric acid (AIB) were applied to plants as a root drench, with two applications per rate. The first application occurred 79 days after seeding, which was on the day plants were transitioned from a vegetative, long day photoperiod (18 h day) to a reproductive, short day photoperiod (12 h day), and the second treatment was applied 5 days later. The stem diameter of the plants on the day of the first treatment were 9 to 10 mm and the plants ranged from 37 to 54 cm in height. The three rates tested were 50, 150 and 300 mM AIB in water, and 150 ml of solution was applied to the roots as a soil drench.

[2] = test system: genetically female Cannabis ssp plants; experiment: 1-MCP root drench: induction of male flowers (Example 19); type: in vivo; details: 0.27 mM or 0.54 mM 1-MCP root drench, three treatments, 3 varieties
Protocol: To determine if the ethylene inhibitor 1-Methylcyclopropene (1-MCP) can induce male flowers on genetically female Cannabis ssp plants, 1-MCP was applied at two different rates to 3 different varieties, with 2 replicates per treatment. The plants were treated with 1-MCP three times, with the first treatment 51 days after seeding, which was on the day plants were transitioned from a vegetative, long day photoperiod (18 h day) to a reproductive, short day photoperiod (12 h day), the second treatment was applied 7 days later and the third treatment was 8 days after the second. For the first two treatments the low rate was 0.27 mM 1-MCP and 25 ml solution per plant was immediately applied as a root drench. The high rate was 0.54 mM and similarly, 25 ml of solution was applied as a root drench. For the third treatment, the dose was doubled by applying 50 ml of the solutions described above, as the plants were larger.

Compound	survival and male structures ([1]; 50 and 150 mM AIB, two root drenches)	phytotoxicity ([1]; after the second treatment, particularly in the highest rate)	plant survival ([1]; highest rate (300 mM AIB), two root drenches)	phytotoxicity in leaf and meristematic tissues ([1]; within 2 days of the first treatment, 50, 150 and 300 mM AIB, 150 ml root drench)	chlorosis [2]	male structures [2]
CC(C)(N)C(=O)O [AIB, 2-Aminoisobutyric acid]	survived and produced small male structures that did not produce viable pollen	more severe phototoxicity	the plant ultimately died	Mild phytotoxicity		
CC1=CC1 [1-MCP, 1-Methylcyclopropene]					mild chlorosis of growing apices	no clear or consistent male structures were observed in any of the treatments
